Measurements reported in PubChem BioAssay AID1963842 (Molecular Pharmacology Branch, DTP, NCI, 2024).

System: 677734-321-R-J1-PDC complex spheroid viability
Test: Anticancer human tumor 677734-321-R-J1-PDC patient-derived soft tissue sarcoma cell line growth inhibition [POLQ]
Details: for IC50: curve of first compound; for viability, T/C: stronger effect = lower value
In short: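 Complex spheroid viability model combining PDC tumour cells with endothelial (HUVEC) and MSC stromal cells. Novobiocin, ART-558 or RP6685 were tested singly and in combination with standard and investigational anticancer drugs. Each was titrated in half-log steps from near clinical Cmax, or from 10 microM where Cmax was unknown.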

[1] = second compound 0.0316 µM, first compound 0.0316 µM
[2] = second compound 0.0316 µM, first compound 0.1 µM
[3] = second compound 0.0316 µM, first compound 0.316 µM
[4] = second compound 0.0316 µM, first compound 1 µM
[5] = second compound 0.0316 µM, first compound 3.16 µM
[6] = second compound 0.0316 µM, first compound 10 µM
[7] = second compound 0.1 µM, first compound 0.0316 µM
[8] = second compound 0.1 µM, first compound 0.1 µM
[9] = second compound 0.1 µM, first compound 0.316 µM
[10] = second compound 0.1 µM, first compound 1 µM
[11] = second compound 0.1 µM, first compound 3.16 µM
[12] = second compound 0.1 µM, first compound 10 µM
[13] = second compound 0.316 µM, first compound 0.0316 µM
[14] = second compound 0.316 µM, first compound 0.1 µM
[15] = second compound 0.316 µM, first compound 0.316 µM
[16] = second compound 0.316 µM, first compound 1 µM
[17] = second compound 0.316 µM, first compound 3.16 µM
[18] = second compound 0.316 µM, first compound 10 µM
[19] = second compound 1 µM, first compound 0.0316 µM
[20] = second compound 1 µM, first compound 0.1 µM
[21] = second compound 1 µM, first compound 0.316 µM
[22] = second compound 1 µM, first compound 1 µM
[23] = second compound 1 µM, first compound 3.16 µM
[24] = second compound 1 µM, first compound 10 µM
[25] = second compound 3.16 µM, first compound 0.0316 µM
[26] = second compound 3.16 µM, first compound 0.1 µM
[27] = second compound 3.16 µM, first compound 0.316 µM
[28] = second compound 3.16 µM, first compound 1 µM
[29] = second compound 3.16 µM, first compound 3.16 µM
[30] = second compound 3.16 µM, first compound 10 µM
[31] = second compound 10 µM, first compound 0.0316 µM
[32] = second compound 10 µM, first compound 0.1 µM
[33] = second compound 10 µM, first compound 0.316 µM
[34] = second compound 10 µM, first compound 1 µM
[35] = second compound 10 µM, first compound 3.16 µM
[36] = second compound 10 µM, first compound 10 µM
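Further: spheroids exposed to compounds for one week.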
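Wherever viability, T/C is given: 100% = vehicle DMSO treated spheroids.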

CC1COCCN1c1cc(-c2ccnn2C)c2ccnc(-c3ccn[nH]3)c2n1 (stereo not drawn) + Cc1cccc(N(C)C(=O)C2C(O)CCN2c2nc(C)cc(C(F)(F)F)c2C#N)c1 was tested, and the IC50 (second compound 0.0316 µM) was 161 nM, the IC50 (second compound 0.1 µM) was 175 nM and the IC50 (second compound 0.316 µM) was 153 nM. For the same compound, the IC50 (second compound 1 µM) was 156 nM, the IC50 (second compound 3.16 µM) was 125 nM and the IC50 (second compound 10 µM) was 110 nM. The viability, T/C [1] was 100%, the viability, T/C [2] was 67.6% and the viability, T/C [3] was 24.8%. For the same compound, the viability, T/C [4] was 21.6%, the viability, T/C [5] was 18.2% and the viability, T/C [6] was 14.3%. For the same compound, the viability, T/C [7] was 88.9%, the viability, T/C [8] was 70.9% and the viability, T/C [9] was 27.8%. The viability, T/C [10] was 17.1%, the viability, T/C [11] was 17.4% and the viability, T/C [12] was 16.6%. For the same compound, the viability, T/C [13] was 98.1%, the viability, T/C [14] was 64.9% and the viability, T/C [15] was 24.2%. It also gave a viability, T/C [16] of 19.6%, a viability, T/C [17] of 20.3% and a viability, T/C [18] of 16.3%. The viability, T/C [19] was 99.9%, the viability, T/C [20] was 65.5% and the viability, T/C [21] was 25.4%. For the same compound, the viability, T/C [22] was 18.7%, the viability, T/C [23] was 18.9% and the viability, T/C [24] was 15.8%. For the same compound, the viability, T/C [25] was 90.7%, the viability, T/C [26] was 56% and the viability, T/C [27] was 25.2%. It also gave a viability, T/C [28] of 19.1%, a viability, T/C [29] of 16.5% and a viability, T/C [30] of 18.6%. It also gave a viability, T/C [31] of 89.7%, a viability, T/C [32] of 52.5% and a viability, T/C [33] of 21.7%. The viability, T/C [34] was 17.2%, the viability, T/C [35] was 18.4% and the viability, T/C [36] was 16%.

Work on CC1COCCN1c1cc(C2(S(C)(=N)=O)CC2)nc(-c2ccnc3[nH]ccc23)n1 (stereo not drawn) + Cc1cccc(N(C)C(=O)C2C(O)CCN2c2nc(C)cc(C(F)(F)F)c2C#N)c1 yielded an IC50 (second compound 0.0316 µM) of 4030 nM, an IC50 (second compound 0.1 µM) of 3860 nM and an IC50 (second compound 0.316 µM) of 3910 nM. It also gave an IC50 (second compound 1 µM) of 3790 nM, an IC50 (second compound 3.16 µM) of 3100 nM and an IC50 (second compound 10 µM) of 3030 nM. The viability, T/C [1] was 106%, the viability, T/C [2] was 105% and the viability, T/C [3] was 104%. It also gave a viability, T/C [4] of 91%, a viability, T/C [5] of 57% and a viability, T/C [6] of 24.2%. The viability, T/C [7] was 106%, the viability, T/C [8] was 110% and the viability, T/C [9] was 96.5%. It also gave a viability, T/C [10] of 92.9%, a viability, T/C [11] of 53.6% and a viability, T/C [12] of 28.6%. For the same compound, the viability, T/C [13] was 117%, the viability, T/C [14] was 108% and the viability, T/C [15] was 100%. It also gave a viability, T/C [16] of 90.4%, a viability, T/C [17] of 54.3% and a viability, T/C [18] of 22%. For the same compound, the viability, T/C [19] was 109%, the viability, T/C [20] was 102% and the viability, T/C [21] was 98.5%. The viability, T/C [22] was 98.3%, the viability, T/C [23] was 54.5% and the viability, T/C [24] was 25.4%. For the same compound, the viability, T/C [25] was 104%, the viability, T/C [26] was 103% and the viability, T/C [27] was 99.7%. The viability, T/C [28] was 90.6%, the viability, T/C [29] was 49.2% and the viability, T/C [30] was 37.8%. The viability, T/C [31] was 102%, the viability, T/C [32] was 96.5% and the viability, T/C [33] was 93.1%. The viability, T/C [34] was 87%, the viability, T/C [35] was 48.3% and the viability, T/C [36] was 26%.

CCCS(=O)(=O)Nc1ccc(F)c(C(=O)c2c[nH]c3ncc(-c4ccc(Cl)cc4)cc23)c1F + Cc1cccc(N(C)C(=O)C2C(O)CCN2c2nc(C)cc(C(F)(F)F)c2C#N)c1 gave an IC50 (second compound 0.0316 µM) of 4250 nM, an IC50 (second compound 0.1 µM) of 3820 nM and an IC50 (second compound 0.316 µM) of 3990 nM. The IC50 (second compound 1 µM) was 3120 nM, the IC50 (second compound 3.16 µM) was 2920 nM and the IC50 (second compound 10 µM) was 2000 nM. The viability, T/C [1] was 104%, the viability, T/C [2] was 105% and the viability, T/C [3] was 108%. The viability, T/C [4] was 99.8%, the viability, T/C [5] was 65.3% and the viability, T/C [6] was 5.8%. For the same compound, the viability, T/C [7] was 94.5%, the viability, T/C [8] was 87.3% and the viability, T/C [9] was 100%. For the same compound, the viability, T/C [10] was 86.4%, the viability, T/C [11] was 59.1% and the viability, T/C [12] was 4.58%. For the same compound, the viability, T/C [13] was 90.7%, the viability, T/C [14] was 101% and the viability, T/C [15] was 89.1%. It also gave a viability, T/C [16] of 96%, a viability, T/C [17] of 61.9% and a viability, T/C [18] of 3.41%. For the same compound, the viability, T/C [19] was 101%, the viability, T/C [20] was 93.2% and the viability, T/C [21] was 79.6%. The viability, T/C [22] was 108%, the viability, T/C [23] was 49.4% and the viability, T/C [24] was 2.83%. For the same compound, the viability, T/C [25] was 94.1%, the viability, T/C [26] was 84.6% and the viability, T/C [27] was 94%. The viability, T/C [28] was 98.4%, the viability, T/C [29] was 46.8% and the viability, T/C [30] was 2.44%. It also gave a viability, T/C [31] of 80.1%, a viability, T/C [32] of 71.7% and a viability, T/C [33] of 80.6%. The viability, T/C [34] was 83.3%, the viability, T/C [35] was 30.8% and the viability, T/C [36] was 0.79%.

Cn1ncnc1[C@H]1c2n[nH]c(=O)c3cc(F)cc(c23)N[C@@H]1c1ccc(F)cc1 + Cc1cccc(N(C)C(=O)C2C(O)CCN2c2nc(C)cc(C(F)(F)F)c2C#N)c1 was tested, and the IC50 (second compound 0.0316 µM) was greater than 100 nM, the IC50 (second compound 0.1 µM) was greater than 100 nM and the IC50 (second compound 0.316 µM) was greater than 100 nM. It also gave an IC50 (second compound 1 µM) greater than 100 nM, an IC50 (second compound 3.16 µM) greater than 100 nM and an IC50 (second compound 10 µM) greater than 100 nM. It also gave a viability, T/C (second compound 0.0316 µM, first compound 0.000316 µM) of 110%, a viability, T/C (second compound 0.0316 µM, first compound 0.001 µM) of 102% and a viability, T/C (second compound 0.0316 µM, first compound 0.00316 µM) of 100%. It also gave a viability, T/C (second compound 0.0316 µM, first compound 0.01 µM) of 107%, a viability, T/C [1] of 104% and a viability, T/C [2] of 87.3%. It also gave a viability, T/C (second compound 0.1 µM, first compound 0.000316 µM) of 103%, a viability, T/C (second compound 0.1 µM, first compound 0.001 µM) of 99.7% and a viability, T/C (second compound 0.1 µM, first compound 0.00316 µM) of 102%. It also gave a viability, T/C (second compound 0.1 µM, first compound 0.01 µM) of 107%, a viability, T/C [7] of 101% and a viability, T/C [8] of 95.1%. The viability, T/C (second compound 0.316 µM, first compound 0.000316 µM) was 103%, the viability, T/C (second compound 0.316 µM, first compound 0.001 µM) was 97.8% and the viability, T/C (second compound 0.316 µM, first compound 0.00316 µM) was 102%. For the same compound, the viability, T/C (second compound 0.316 µM, first compound 0.01 µM) was 102%, the viability, T/C [13] was 102% and the viability, T/C [14] was 96.2%. For the same compound, the viability, T/C (second compound 1 µM, first compound 0.000316 µM) was 109%, the viability, T/C (second compound 1 µM, first compound 0.001 µM) was 96.4% and the viability, T/C (second compound 1 µM, first compound 0.00316 µM) was 96.9%. The viability, T/C (second compound 1 µM, first compound 0.01 µM) was 103%, the viability, T/C [19] was 96% and the viability, T/C [20] was 94.5%. The viability, T/C (second compound 3.16 µM, first compound 0.000316 µM) was 100%, the viability, T/C (second compound 3.16 µM, first compound 0.001 µM) was 98.7% and the viability, T/C (second compound 3.16 µM, first compound 0.00316 µM) was 101%. It also gave a viability, T/C (second compound 3.16 µM, first compound 0.01 µM) of 99%, a viability, T/C [25] of 102% and a viability, T/C [26] of 91.3%. For the same compound, the viability, T/C (second compound 10 µM, first compound 0.000316 µM) was 103%, the viability, T/C (second compound 10 µM, first compound 0.001 µM) was 92.1% and the viability, T/C (second compound 10 µM, first compound 0.00316 µM) was 101%. For the same compound, the viability, T/C (second compound 10 µM, first compound 0.01 µM) was 97.9%, the viability, T/C [31] was 91.3% and the viability, T/C [32] was 91.1%.
